Reference: paper PMC7761743, “Structure and Characterization of Phosphoglucomutase 5 from Atlantic and Baltic Herring—An Inactive Enzyme with Intact Substrate Binding” (Biomolecules, 2020)

Biological target: T1, bPGM5 (Baltic herring PGM5) (Clupea harengus, UniProt A0A6P3VN15)
T1 construct: full length, 567 residues; codon-optimized, E. coli BL21(DE3), pNIC28-Bsa4, N-terminal TEV-cleavable His6-tag (kept in crystals, removed for DSF); monomer; Ser121 phosphorylated in crystal
Test: X-ray crystal structure, […] Å
Type: binding
Details: active site; His6-tagged protein with phosphorylated Ser121, metal modelled as Ni2+; crystals soaked overnight with 5 mM glucose-1,6-bisphosphate, observed ligand is G1P; pH 6.5

T1 sequence (A0A6P3VN15 entry or part of it): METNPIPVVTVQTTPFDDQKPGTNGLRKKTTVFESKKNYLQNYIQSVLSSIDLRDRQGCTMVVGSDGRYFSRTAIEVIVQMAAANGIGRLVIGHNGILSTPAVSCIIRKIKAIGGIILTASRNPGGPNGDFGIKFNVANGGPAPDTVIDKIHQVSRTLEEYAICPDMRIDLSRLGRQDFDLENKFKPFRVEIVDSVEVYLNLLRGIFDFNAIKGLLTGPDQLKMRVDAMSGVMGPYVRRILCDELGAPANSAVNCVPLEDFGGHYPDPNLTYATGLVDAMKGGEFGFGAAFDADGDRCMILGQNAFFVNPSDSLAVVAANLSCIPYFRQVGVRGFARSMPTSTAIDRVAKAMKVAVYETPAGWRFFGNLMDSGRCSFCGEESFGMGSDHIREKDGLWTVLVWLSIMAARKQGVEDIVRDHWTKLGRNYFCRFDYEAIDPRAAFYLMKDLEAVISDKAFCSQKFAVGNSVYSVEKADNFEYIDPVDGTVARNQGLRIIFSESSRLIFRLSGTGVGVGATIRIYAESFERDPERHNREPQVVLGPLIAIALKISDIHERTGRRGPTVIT

## O=P(O)(O)O[C@H]1O[C@H](CO)[C@@H](O)[C@H](O)[C@H]1O [G1P, glucose-1-phosphate]
  X-ray crystal structure, 1.95 Å: the observed ligand is G1P instead of the G16P that was used in crystallization
